The values that follow are results of earlier work, collected in patent EP1146906B1, “MUCOSAL DELIVERY SYSTEM” (Alk-Abelló A/S, priority 1999, dated 2000).

The conditions of the data set: compared to the parenteral equivalent.

Read-outs that look alike come from different tables or passages of the source.

For desmopression, the bioavailability was 10% (after nasal administration) and 1% (after oral administration).

Usually bioavailability stands for dose-corrected exposure relative to a reference, in per cent.
